Measurements reported in patent US20240139178A1, “METHOD FOR MANUFACTURING COMPOSITION FOR COMPOSITION FOR INCREASING COGNITIVE FUNCTION” (priority 2018, published 2024).

Tests used:
[1] = biological target: T1, Aβ1-42 (Homo sapiens, UniProt P05067); assay: Aβ disaggregation test of rifamycin-based derivatives by Thioflavin T analysis; type: biochemical; conditions: 50 μM compound, 50 μM Aβ1-42 aggregated 3 days, then 2 days of reaction
T1 construct: human A81-42 monomers (UniProtKB-P05067, a.a. 672-713)
Protocol: The compound was then used diluted with 6% DMSO (in DW).
The Aβ solution was prepared by dissolving Aβ 1-42 monomers to the concentration of 10 mM in DMSO. Thereafter, the mixture was diluted to 100 μM by using DW and stored on ice.
On the other hand, Thioflavin-T was dissolved to the concentration of 5 mM in 50 mM glycine buffer (pH 8.5). Then, the resultant solution was diluted to the concentration of 50 μM by using 50 mM glycine buffer (pH 8.5) and stored in the dark while light was blocked.
The Aβ solution prepared in Example 3.1. was placed in 1.5 mL microcentrifuge tubes, each having 50 μM of the Aβ solution, and then reacted at 37° C. for 72 hours.
Each 1.5 mL microcentrifuge tube was treated with 50 μM rifapentine-based derivatives, followed by reaction at 37° C. for 48 hours.
(§1) 25 μL of the reaction solution in which the reaction was completed was added to each well of a 96-well fluorescence assay plate, and 75 μL of the Thioflavin-T solution prepared above was added to each well. After reacting for 5 minutes in the dark at room temperature, fluorescence values were measured at excitation 450 nm and emission 485 nm by using a multi-mode microplate reader.
The fluorescence value of the group (control) treated with Aβ alone and aggregated for 72 hours by treating only Aβ was considered as 100%, and the measured fluorescence values were expressed as a relative value thereto, and results thereof are shown in FIG. 7.

[2] = biological target: T1, Aβ1-42; assay: Aβ aggregation inhibition test (Thioflavin T analysis); type: biochemical; conditions: 20 μM compound, 50 μM Aβ, 3 days; relative to control (100%)
Protocol: Then, the compound was used diluted by using 6% DMSO (in DW) and used.
Triflupromazine hydrochloride (triflupromazine used in all the examples below is triflupromazine hydrochloride) was dissolved to a concentration of 5 mM in DMSO. The compound was then used diluted with 6% DMSO (in DW).
The Aβ solution was prepared by dissolving human A81-42 monomers (UniProtKB-P05067, a.a. 672-713) to 10 mM concentration in DMSO. Thereafter, the mixture was diluted to 100 uM by using DW and stored on ice.
On the other hand, Thioflavin-T (Sigma-Aldrich) was dissolved to the concentration of 5 mM in 50 mM glycine buffer (pH 8.5). Then, the resultant solution was diluted to the concentration of 50 μM by using 50 mM glycine buffer (pH 8.5) and stored in the dark while light was blocked.
as §1
The fluorescence value of the group (control) treated with Aβ alone and aggregated for 72 hours was considered as 100%, and the measured fluorescence values were expressed as a relative value thereto, and results thereof are shown in FIG. 1 and FIG. 2.
In addition, by performing the same test as described above for 20 μM of various compounds using 50 μM Aβ, the degree of Aβ aggregation was measured, and the result is expressed as a relative value for control (100%).

T1 sequence (P05067 672-713): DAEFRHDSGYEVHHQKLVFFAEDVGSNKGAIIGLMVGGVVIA

Molecule	Aβ disaggregation effect compared to the control [1]	Aggregation (%) [2]
3-[[[4-(2-Methylpropyl)-1-piperazinyl]imino]methyl]rifamycin [rifamdin]	about 50%	–
CO[C@H]1/C=C/O[C@@]2(C)Oc3c(C)c(O)c4c(O)c(c5c(nc6cc(C)ccn65)c4c3C2=O)NC(=O)/C(C)=C\C=C\[C@H](C)[C@H](O)[C@@H](C)[C@@H](O)[C@@H](C)[C@H](OC(C)=O)[C@@H]1C (relative stereo) [rifaximin, [2S-(2R*,16Z,18E,20R*,21R*,22S*,23S*,24S*,25R*,26S*,27R*,22E)]-25-acetyloxy) -5,6,21,23-tetrahydroxy-27-methoxy-2,4,11,16,20,22,24,26-octamethyl-2,7-(epoxypentadeca [1,11,13] trienimino) benzofuro [4,5-e] pyrido [1,2-a] benzimidazole-1,15 (2H) -dione]	significant disaggregation did not occur	–
CCN1CCCC1CNC(=O)c1cc(S(=O)(=O)CC)c(N)cc1OC (stereo not drawn) [Amisulpride]	–	96.29%
CN1CCN(C2=Nc3cc(Cl)ccc3Nc3ccccc32)CC1 [Clozapine]	–	99.14%
CC12CC3CC(C)(C1)CC(N)(C3)C2 [Mementine]	–	95.84%
Cc1nc2n(c(=O)c1CCN1CCC(c3noc4cc(F)ccc34)CC1)CCCC2 [Risperidone]	–	117.68%
CN1CCN(CC/C=C2/c3ccccc3Sc3ccc(S(=O)(=O)N(C)C)cc32)CC1 [Thiothixene]	–	125.23%
CO[C@H]1/C=C/O[C@@]2(C)Oc3c(C)c(O)c4c(O)c(c(/C=N/N5CCN(C)CC5)c(O)c4c3C2=O)NC(=O)/C(C)=C\C=C\[C@H](C)[C@H](O)[C@@H](C)[C@@H](O)[C@@H](C)[C@H](OC(C)=O)[C@@H]1C [rifampicin, 5,6,9,17,19,21-hexahydroxy-23-methoxy-2,4,12,16,18,20,22-heptamethyl-8-[N-(4-methyl-1-piperazinyl) formimidoyl]-2,7-(epoxypentadeca [1,11,13]trienimino)-naphtho [2,1-b] furan-1,11 (2H) -dione 21-acetate]	about 50%	–
CO[C@H]1/C=C/O[C@@]2(C)Oc3c(C)c(O)c4c(O)c(cc(OCC(=O)O)c4c3C2=O)NC(=O)/C(C)=C\C=C\[C@H](C)[C@H](O)[C@@H](C)[C@@H](O)[C@@H](C)[C@H](OC(C)=O)[C@@H]1C [rifamycin B, {[(2S,12Z,14E,16S,17S,18R,19R,20R,21S,22R,23S,24E)-21-(acetyloxy)-5,6,17,19-tetrahydroxy-23-methoxy-2,4,12,16,18,20,22-heptamethyl-1,11-dioxo-1,2-dihydro-2,7-(epoxypentadeca[1,11,13]trienoimino)naphtho[2,1-b]furan-9-yl]oxy}acetic acid]	significant disaggregation did not occur	–
CO[C@H]1/C=C/O[C@@]2(C)Oc3c(C)c(O)c4c(c3C2=O)C(=O)C=C(NC(=O)/C(C)=C\C=C\[C@H](C)[C@H](O)[C@@H](C)[C@@H](O)[C@@H](C)[C@H](OC(C)=O)[C@@H]1C)C4=O [rifamycin S, 5,17,19,21-tetrahydroxy-23-methoxy-2,4,12,16,18,20,22-heptamethyl-2,7-(epoxypentadeca[1,11,13]trienimino)naphtho[2,1-b]furan-1,6,9,11(2H)-tetrone 21-acetate]	25%	–
CO[C@H]1/C=C/O[C@@]2(C)Oc3c(C)c(O)c4c(O)c(cc(O)c4c3C2=O)NC(=O)/C(C)=C\C=C\[C@H](C)[C@H](O)[C@@H](C)[C@@H](O)[C@@H](C)[C@H](OC(C)=O)[C@@H]1C [rifamycin SV, 5,6,9,17,19,21-Hexahydroxy-23-methoxy-2,4,12,16,18,20,22-heptamethyl-2,7-(epoxypentadeca[1,11,13]trienimino)naphtho[2,1-b]furan-1,11(2H)-dione 21-acetate]	about 50%	–
COC1C=COC2(C)Oc3c(C)c(O)c4c(O)c(c5c(c4c3C2=O)=NC2(CCN(CC(C)C)CC2)N=5)NC(=O)C(C)=CC=CC(C)C(O)C(C)C(O)C(C)C(OC(C)=O)C1C [ripabutin, (S,12E,14S,15R,16S,17R,18R,19R,20S,21S,22E,24Z)-6,16,18,20-tetrahydroxy-1′-isobutyl-14-methoxy-7,9,15,17,19,21,25-heptamethyl-spiro[9,4-(epoxypentadeca[1,11,13]trienimino)-2H-furo[2″,3″:7,8]naphth[1,2-dimidazole-2,4″-piperidine]-5,10,26-(3H,9H)-trione-16-acetate]	about 50%	–
